Literature values as cited in patent publication US9314419B2, “Oral care compositions with a reduced bitter taste perception” (The Procter & Gamble Company, priority 2014, dated 2016).

Conditions: concentration level where the cooling effect can be clearly recognized

Row | Compound | cooling threshold
1 | CC(C)[C@@H]1CC[C@@H](C)C[C@@H]1O [Example 1-neomenthol, 1-neomenthol] | about 3,000 ppb
2 | CC(C)[C@@H]1CC[C@@H](C)C[C@H]1O [L-menthol] | about 800 ppb
3 | CC(C)[C@@H]1CC[C@@H](C)C[C@@H]1O [d-neomenthol] | about 25,000 ppb
